In test [1] the test system is HCV genotype 1a (H77 strain) replicon in HUH-7 cells. Put plainly: HCV replicon luciferase reporter assay, genotype 1a. It is filed as cell-based. As to conditions: Hepatitis C virus, Huh-7, 72 h, HCV genotype 1a replicon luciferase, 3 days incubation, read-out: LE_1a (EC50, range). In short, it runs like this:
(§1)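 Replicon inhibition for both genotypes was measured as Renilla luciferase signal (EnduRen, 7.5 μM final, 2 h) after 3-day, 37° C exposure of replicon-bearing HUH-7 cells in 4% FCS DMEM, 0.5% DMSO. The 1b construct carries S1179I; the 1a H77 construct carries P1496L and S2204I. Twenty-point, 3-fold dilutions were fitted four-parametrically for EC50, and CC50 was taken from multiplexed Cell Titer-Blue.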
On the technique in general: A replicon is a self-replicating genome or part of one, used to study replication in cells.

In test [2] the test system is HCV genotype 1b (Con1) replicon in HUH-7 cells. The experiment in a line: HCV replicon luciferase reporter assay, genotype 1b. As to conditions: Hepatitis C virus, Huh-7, 72 h, HCV genotype 1b replicon luciferase, 3 days incubation, read-out: LE_1b (EC50, range). It is filed as cell-based. Summed up:
as §1

Structures are written as SMILES.

One may read the EC50 as the midpoint of the concentration-response curve. On to `COc1ccc2c(O[C@@H]3C[C@H]4C(=O)N[C@]5(C(=O)NS(=O)(=O)C6CC6)C[C@H]5/C=C\CC[C@@H](C)C[C@@H](C)[C@H](NC(=O)OC(C)(C)C)C(=O)N4C3)nc(-c3ccc(OC(C)C)cn3)cc2c1` [Compound 5201, tert-butyl ((2R,6S,7R,9R,13aS,14aR,16aS,Z)-14a-((cyclopropylsulfonyl)carbamoyl)-2-((3-(5-isopropoxypyridin-2-yl)-6-methoxyisoquinolin-1-yl)oxy)-7,9-dimethyl-5,16-dioxo-1,2,3,5,6,7,8,9,10,11,13a,14,14a,15,16,16a-hexadecahydrocyclopropa[e]pyrrolo[1,2-a][1,4]diazacyclopentadecin-6-yl)carbamate], for which the half-maximal effective concentration (EC50) in test [1] and in test [2] was less than 5.46 nM throughout.
With `COc1ccc2c(O[C@@H]3C[C@H]4C(=O)N[C@]5(C(=O)NS(=O)(=O)C6CC6)C[C@H]5/C=C\CC[C@H](C)C[C@@H](C)[C@H](NC(=O)OC(C)(C)C(F)(F)F)C(=O)N4C3)nc(-c3ccc(OC(C)C)cn3)cc2c1` [Compound 5202, 1,1,1-trifluoro-2-methylpropan-2-yl((2R,6S,7R,9S,13aS,14aR,16aS,Z)-14a-((cyclopropylsulfonyl)carbamoyl)-2-((3-(5-isopropoxypyridin-2-yl)-6-methoxyisoquinolin-1-yl)oxy)-7,9-dimethyl-5,16-dioxo-1,2,3,5,6,7,8,9,10,11,13a,14,14a,15,16,16a-hexadecahydrocyclopropa[e]pyrrolo[1,2-a][1,4]diazacyclopentadecin-6-yl)carbamate], the EC50 in test [1] and in test [2] was less than 5.46 nM each time.
Consider `COc1ccc2c(O[C@@H]3C[C@H]4C(=O)N[C@]5(C(=O)NS(=O)(=O)C6CC6)C[C@H]5/C=C\CC[C@@H](C)C[C@@H](C)[C@H](NC(=O)OC(C)(C)C(F)(F)F)C(=O)N4C3)nc(-c3ccc(OC(C)C)cn3)cc2c1` [Compound 5203, 1,1,1-trifluoro-2-methylpropan-2-yl((2R,6S,7R,9R,13aS,14aR,16aS,Z)-14a-((cyclopropylsulfonyl)carbamoyl)-2-((3-(5-isopropoxypyridin-2-yl)-6-methoxyisoquinolin-1-yl)oxy)-7,9-dimethyl-5,16-dioxo-1,2,3,5,6,7,8,9,10,11,13a,14,14a,15,16,16a-hexadecahydrocyclopropa[e]pyrrolo[1,2-a][1,4]diazacyclopentadecin-6-yl)carbamate], for which the EC50 in test [1] and in test [2] was less than 5.46 nM in each case.
As to `[2H]C([2H])([2H])C(OC(=O)N[C@@H]1C(=O)N2C[C@H](Oc3nc(-c4ccc(OC(C)C)cn4)cc4cc(OC)ccc34)C[C@H]2C(=O)N[C@]2(C(=O)NS(=O)(=O)C3CC3)C[C@H]2/C=C\CC[C@H](C)C[C@H]1C)(C([2H])([2H])[2H])C(F)(F)F` [Compound 5204, 1,1,1,3,3,3-hexadeutero-2-(trifluoromethyl)propan-2-yl((2R,6S,7R,9S,13aS,14aR,16aS,Z)-14a-((cyclopropylsulfonyl)carbamoyl)-2-((3-(5-isopropoxypyridin-2-yl)-6-methoxyisoquinolin-1-yl)oxy)-7,9-dimethyl-5,16-dioxo-1,2,3,5,6,7,8,9,10,11,13a,14,14a,15,16,16a-hexadecahydrocyclopropa[e]pyrrolo[1,2-a][1,4]diazacyclopentadecin-6-yl)carbamate], the EC50 in test [1] and in test [2] was less than 5.46 nM in each case.
Turning to `[2H]C([2H])([2H])C(OC(=O)N[C@@H]1C(=O)N2C[C@H](Oc3nc(-c4ccc(OC(C)C)cn4)cc4cc(OC)ccc34)C[C@H]2C(=O)N[C@]2(C(=O)NS(=O)(=O)C3CC3)C[C@H]2/C=C\CC[C@@H](C)C[C@H]1C)(C([2H])([2H])[2H])C(F)(F)F` [Compound 5205, 1,1,1,3,3,3-hexadeutero-2-(trifluoromethyl)propan-2-yl((2R,6S,7R,9R,13aS,14aR,16aS,Z)-14a-((cyclopropylsulfonyl)carbamoyl)-2-((3-(5-isopropoxypyridin-2-yl)-6-methoxyisoquinolin-1-yl)oxy)-7,9-dimethyl-5,16-dioxo-1,2,3,5,6,7,8,9,10,11,13a,14,14a,15,16,16a-hexadecahydrocyclopropa[e]pyrrolo[1,2-a][1,4]diazacyclopentadecin-6-yl)carbamate], the half-maximal effective concentration (EC50) in test [1] and in test [2] was less than 5.46 nM in each case.
In the case of `COc1ccc2c(O[C@@H]3C[C@H]4C(=O)N[C@]5(C(=O)NS(=O)(=O)C6CC6)C[C@H]5/C=C\CC[C@H](C)C[C@@H](C)[C@H](NC(=O)O[C@H](C)C(F)(F)F)C(=O)N4C3)nc(-c3ccc(OC(C)C)cn3)cc2c1` [Compound 5206, (R)-1,1,1-trifluoropropan-2-yl ((2R,6S,7R,9S,13aS,14aR,16aS,Z)-14a-((cyclopropylsulfonyl)carbamoyl)-2-((3-(5-isopropoxypyridin-2-yl)-6-methoxyisoquinolin-1-yl)oxy)-7,9-dimethyl-5,16-dioxo-1,2,3,5,6,7,8,9,10,11,13a,14,14a,15,16,16a-hexadecahydrocyclopropa[e]pyrrolo[1,2-a][1,4]diazacyclopentadecin-6-yl)carbamate], the concentration giving a half-maximal response (EC50) in test [1] and in test [2] was less than 5.46 nM in each case.
For `COc1ccc2c(O[C@@H]3C[C@H]4C(=O)N[C@]5(C(=O)NS(=O)(=O)C6CC6)C[C@H]5/C=C\CC[C@@H](C)C[C@@H](C)[C@H](NC(=O)O[C@H](C)C(F)(F)F)C(=O)N4C3)nc(-c3ccc(OC(C)C)cn3)cc2c1` [Compound 5207, (R)-1,1,1-trifluoropropan-2-yl ((2R,6S,7R,9R,13aS,14aR,16aS,Z)-14a-((cyclopropylsulfonyl)carbamoyl)-2-((3-(5-isopropoxypyridin-2-yl)-6-methoxyisoquinolin-1-yl)oxy)-7,9-dimethyl-5,16-dioxo-1,2,3,5,6,7,8,9,10,11,13a,14,14a,15,16,16a-hexadecahydrocyclopropa[e]pyrrolo[1,2-a][1,4]diazacyclopentadecin-6-yl)carbamate], the half-maximal effective concentration (EC50) in test [1] and in test [2] was less than 5.46 nM throughout.
On to `COc1ccc2c(O[C@@H]3C[C@H]4C(=O)N[C@]5(C(=O)NS(=O)(=O)C6CC6)C[C@H]5/C=C\CC[C@H](C)C[C@@H](C)[C@H](NC(=O)OC5C[C@@H]6C[C@@H]6C5)C(=O)N4C3)nc(-c3ccc(OC(C)C)cn3)cc2c1` (stereo partly drawn) [Compound 5208, (1R,3r,5S)-bicyclo[3.1.0]hexan-3-yl((2R,6S,7R,9S,13aS,14aR,16aS,Z)-14a-((cyclopropylsulfonyl)carbamoyl)-2-((3-(5-isopropoxypyridin-2-yl)-6-methoxyisoquinolin-1-yl)oxy)-7,9-dimethyl-5,16-dioxo-1,2,3,5,6,7,8,9,10,11,13a,14,14a,15,16,16a-hexadecahydrocyclopropa[e]pyrrolo[1,2-a][1,4]diazacyclopentadecin-6-yl)carbamate], for which the EC50 in test [1] and in test [2] was less than 5.46 nM throughout.
For `COc1ccc2c(O[C@@H]3C[C@H]4C(=O)N[C@]5(C(=O)NS(=O)(=O)C6CC6)C[C@H]5/C=C\CC[C@@H](C)C[C@@H](C)[C@H](NC(=O)OC5C[C@@H]6C[C@@H]6C5)C(=O)N4C3)nc(-c3ccc(OC(C)C)cn3)cc2c1` (stereo partly drawn) [Compound 5209, (1R,3r,5S)-bicyclo[3.1.0]hexan-3-yl((2R,6S,7R,9R,13aS,14aR,16aS,Z)-14a-((cyclopropylsulfonyl)carbamoyl)-2-((3-(5-isopropoxypyridin-2-yl)-6-methoxyisoquinolin-1-yl)oxy)-7,9-dimethyl-5,16-dioxo-1,2,3,5,6,7,8,9,10,11,13a,14,14a,15,16,16a-hexadecahydrocyclopropa[e]pyrrolo[1,2-a][1,4]diazacyclopentadecin-6-yl)carbamate], the EC50 in test [1] and in test [2] was less than 5.46 nM throughout.
On to `COc1ccc2c(O[C@@H]3C[C@H]4C(=O)N[C@]5(C(=O)NS(=O)(=O)C6CC6)C[C@H]5/C=C\CC[C@H](C)C[C@@H](C)[C@H](NC(=O)NC(C)(C)C)C(=O)N4C3)nc(-c3ccc(OC(C)C)cn3)cc2c1` [Compound 5210, (2R,6S,7R,9S,13aS,14aR,16aS,Z)-6-(3-(tert-butyl)ureido)-N-(cyclopropylsulfonyl)-2-((3-(5-isopropoxypyridin-2-yl)-6-methoxyisoquinolin-1-yl)oxy)-7,9-dimethyl-5,16-dioxo-1,2,3,5,6,7,8,9,10,11,13a,14,14a,15,16,16a-hexadecahydrocyclopropa[e]pyrrolo[1,2-a][1,4]diazacyclopentadecine-14a-carboxamide], for which the EC50 in test [1] and in test [2] was less than 5.46 nM each time.
For `COc1ccc2c(O[C@@H]3C[C@H]4C(=O)N[C@]5(C(=O)NS(=O)(=O)C6CC6)C[C@H]5/C=C\CC[C@@H](C)C[C@@H](C)[C@H](NC(=O)NC(C)(C)C)C(=O)N4C3)nc(-c3ccc(OC(C)C)cn3)cc2c1` [Compound 5211, (2R,6S,7R,9R,13aS,14aR,16aS,Z)-6-(3-(tert-butyl)ureido)-N-(cyclopropylsulfonyl)-2-((3-(5-isopropoxypyridin-2-yl)-6-methoxyisoquinolin-1-yl)oxy)-7,9-dimethyl-5,16-dioxo-1,2,3,5,6,7,8,9,10,11,13a,14,14a,15,16,16a-hexadecahydrocyclopropa[e]pyrrolo[1,2-a][1,4]diazacyclopentadecine-14a-carboxamide], the EC50 in test [1] and in test [2] was less than 5.46 nM each time.
Turning to `COc1ccc2c(O[C@@H]3C[C@H]4C(=O)N[C@]5(C(=O)NS(=O)(=O)C6CC6)C[C@H]5/C=C\CC[C@H](C)C[C@@H](C)[C@H](NC(=O)OC(C)(C)C)C(=O)N4C3)nc(-c3ccc(OC(C)C)nc3)cc2c1` [Compound 5212, tert-butyl ((2R,6S,7R,9S,13aS,14aR,16aS,Z)-14a-((cyclopropylsulfonyl)carbamoyl)-2-((3-(6-isopropoxypyridin-3-yl)-6-methoxyisoquinolin-1-yl)oxy)-7,9-dimethyl-5,16-dioxo-1,2,3,5,6,7,8,9,10,11,13a,14,14a,15,16,16a-hexadecahydrocyclopropa[e]pyrrolo[1,2-a][1,4]diazacyclopentadecin-6-yl)carbamate], the EC50 in test [1] and in test [2] was less than 5.46 nM throughout.
